From patent US8399465B2, “Compounds with two fused bicyclic heteroaryl moieties as modulators of leukotriene A4 hydrolase” (Janssen Pharmaceutica NV, priority 2009, dated 2013) come the findings set out here.

One may read the IC50 as the point on the concentration scale where inhibition reaches its midpoint.

Structures can show the parent of a compound that is named as a salt. Where only a bound is given, the exact number is not on record here.

The test concerns the target T1, recombinant human LTA4 hydrolase (rhLTA4H) (Homo sapiens, UniProt P09960).
T1 construct: made in house; host or cells: Spodoptera frugiperda (Sf-9) cells, baculovirus (pFastBac1)
T1 sequence (P09960 1-611): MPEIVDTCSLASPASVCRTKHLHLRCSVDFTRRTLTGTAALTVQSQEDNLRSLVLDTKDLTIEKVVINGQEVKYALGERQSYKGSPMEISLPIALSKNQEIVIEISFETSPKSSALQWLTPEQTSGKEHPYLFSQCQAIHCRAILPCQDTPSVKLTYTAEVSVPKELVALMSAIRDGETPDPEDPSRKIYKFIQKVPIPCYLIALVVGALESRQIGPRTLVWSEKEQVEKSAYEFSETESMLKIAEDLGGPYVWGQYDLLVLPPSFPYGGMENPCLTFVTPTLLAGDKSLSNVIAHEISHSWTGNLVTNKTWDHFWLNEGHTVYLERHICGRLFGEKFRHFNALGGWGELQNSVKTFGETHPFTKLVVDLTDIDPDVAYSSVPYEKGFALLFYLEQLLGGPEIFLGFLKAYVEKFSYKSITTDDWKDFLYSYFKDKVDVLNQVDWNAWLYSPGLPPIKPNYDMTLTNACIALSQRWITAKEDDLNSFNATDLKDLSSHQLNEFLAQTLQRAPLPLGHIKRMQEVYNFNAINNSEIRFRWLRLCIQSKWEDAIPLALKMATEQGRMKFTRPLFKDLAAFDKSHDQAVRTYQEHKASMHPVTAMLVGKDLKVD
The experiment in a line: Recombinant human LTA4 hydrolase assay for LTA4 hydrolase inhibitor activity. The class given is biochemical. The settings on record: rhLTA4H, LTB4 by immunoassay; single determination or average of two or more; mark after value = form tested: ′ free base, ″ hydrochloride, ^ formate; read-out: IC50. How it is done: Assay 1: Recombinant Human LTA4 Hydrolase Assay for LTA4 Hydrolase Inhibitor Activity
Compounds of the present invention were tested for LTA4 hydrolase inhibitor activity against recombinant human LTA4 hydrolase (rhLTA4H). Vectors were prepared and used to express rhLTA4H essentially as follows: LTA4 hydrolase encoding DNA was amplified by polymerase chain reaction (PCR) using a human placental cDNA library as a template. […] The amplified 1.9 kb DNA fragment encoding LTA4 hydrolase was isolated and cloned into the pFastBac1 vector (Invitrogen). Recombinant baculovirus was generated as described by the manufacturer, and used to infect Spodoptera frugiperda (Sf-9) cells. […] The purified enzyme solution was adjusted to contain 0.29 mg/mL LTA4 hydrolase, 50 mM Tris (pH 8.0), 150 mM NaCl, 5 mM dithiothreitol, 50% glycerol, and EDTA-free Complete protease inhibitor cocktail (Roche).
LTA4 substrate was prepared from the methyl ester of LTA4 (Cayman Chemical) by treatment with 67 equiv of NaOH under nitrogen at rt for 40 min. The LTA4 substrate in its free acid form was kept frozen at −80° C. until needed. Each compound was diluted to different concentrations in assay buffer (from Assay Designs) containing 10% DMSO. A 25-μL aliquot of each compound dilution was incubated for 10 min at rt with an equal volume of assay buffer containing 10 ng of recombinant human LTA4H. The solution was then adjusted to 200 μL with assay buffer. […] Each reaction was carried out at rt for 30 min. The reaction was stopped by diluting 10 μL of the reaction mixture with 200 μL of assay buffer. LTB4 was quantified in the diluted sample by a commercially available enzyme-linked immunoassay (Cayman Chemical Co.), as recommended by the manufacturer. Positive controls, under essentially identical conditions but without addition of an inhibitor compound, and negative controls, containing all assay components except enzyme, were routinely run in each experiment. IC50 values were determined by nonlinear regression of the activity data at different compound concentrations using Graphpad Prism 4.0, one site binding competition.
The values presented here are the result of a single determination or an average of two or more determinations. Compounds that were not tested are indicated as such by a “NT” designation.

On to `NC(=O)N1C[C@H]2CC[C@@H](C1)N2Cc1cc2cc(Oc3nc4ccccc4s3)ccc2o1` [Example 173, meso-8-[5-(Benzothiazol-2-yloxy)-benzofuran-2-ylmethyl]-3,8-diaza-bicyclo[3.2.1]octane-3-carboxylic acid amide], for which the IC50 came to 187 nM.

With `O=C1CCCN1C1CCN(Cc2cc3ccc(Oc4nc5ncccc5s4)cc3o2)CC1` [Example 108, 1-{1-[6-(Thiazolo[4,5-b]pyridin-2-yloxy)-benzofuran-2-ylmethyl]-piperidin-4-yl}-pyrrolidin-2-one formate], the half-inhibitory concentration (IC50) stood at 145 nM. In the case of `c1cnc2nc(Oc3ccc4cc(CN5CCOCC5)oc4c3)sc2c1` [Example 115, 2-(2-Morpholin-4-ylmethyl-benzofuran-6-yloxy)-thiazolo[4,5-b]pyridine], the IC50 was determined as 327 nM. The value for `Fc1cccc2sc(Oc3ccc4oc(CN5CCCCC5)cc4c3)nc12` [Example 84, 4-Fluoro-2-(2-piperidin-1-ylmethyl-benzofuran-5-yloxy)-benzothiazole formate] was 236 nM. Under `c1ccc2c(c1)CCN(Cc1coc3cc(Oc4nc5ncccc5s4)ccc13)C2` [Example 293, 2-[6-(Thiazolo[4,5-b]pyridin-2-yloxy)-benzofuran-3-ylmethyl]-1,2,3,4-tetrahydro-isoquinoline formate] stands 19 nM. `CCOC(=O)CCN(C)Cc1coc2cc(Oc3nc4ncccc4s3)ccc12` [Example 334, 3-{Methyl-[6-(thiazolo[4,5-b]pyridin-2-yloxy)-benzofuran-3-ylmethyl]-amino}-propionic acid ethyl ester]: the concentration for half-maximal inhibition (IC50) stood at 20 nM. The value for `c1ccc(OCCNCc2coc3cc(Oc4nc5ncccc5s4)ccc23)cc1` [Example 319, (2-Phenoxy-ethyl)-[6-(thiazolo[4,5-b]pyridin-2-yloxy)-benzofuran-3-ylmethyl]-amine formate] was 52 nM. Under `CC(=O)N1C[C@@H]2C[C@H]1CN2Cc1coc2cc(Oc3nc4cnccc4s3)ccc12` [Example 222, (1S,4S)-1-{5-[6-(Thiazolo[4,5-c]pyridin-2-yloxy)-benzofuran-3-ylmethyl]-2,5-diaza-bicyclo[2.2.1]hept-2-yl}-ethanone] stands 365 nM. The value for `C[C@H]1COCCN1Cc1cc2cc(Oc3nc4ncccc4s3)ccc2o1` [Example 98, (3S)-2-[2-(3-Methyl-morpholin-4-ylmethyl)-benzofuran-5-yloxy]-thiazolo[4,5-b]pyridine] was 153 nM; that for `NS(=O)(=O)c1ccc(CCNCc2coc3cc(Oc4nc5ccccc5s4)ccc23)cc1` [Example 311, 4-(2-{[6-(Benzothiazol-2-yloxy)-benzofuran-3-ylmethyl]-amino}-ethyl)-benzenesulfonamide] was 230 nM; that for `CCN(Cc1coc2cc(Oc3nc4ncccc4s3)ccc12)C1CCCCC1` [Example 318, Cyclohexyl-ethyl-[6-(thiazolo[4,5-b]pyridin-2-yloxy)-benzofuran-3-ylmethyl]-amine formate] was below 1 nM. As for `COC(=O)c1ccc(C(=O)NCc2coc3cc(Oc4nc5ncccc5s4)ccc23)cc1` [Example 393, N-[6-(Thiazolo[4,5-b]pyridin-2-yloxy)-benzofuran-3-ylmethyl]-terephthalamic acid methyl ester], the half-maximal inhibitory concentration (IC50) is 100 nM. For the compound `CCN(CC)Cc1cc2cc(Oc3nc4ncccc4s3)ccc2o1` [Example 329, Diethyl-[5-(thiazolo[4,5-b]pyridin-2-yloxy)-benzofuran-2-ylmethyl]-amine formate], the half-inhibitory concentration (IC50) amounted to 54 nM. As to `c1ccc2sc(Oc3ccc4cc(CN5CCCCC5)sc4c3)nc2c1` [Example 132, 2-(2-Piperidin-1-ylmethyl-benzo[b]thiophen-6-yloxy)-benzothiazole], the half-inhibitory concentration (IC50) is 720 nM. Under `CC(=O)N1CCCC2(CCN(Cc3cc4cc(Oc5nc6ncccc6s5)ccc4o3)C2)C1` (stereo not drawn) [Example 166, 1-{2-[5-(Thiazolo[4,5-b]pyridin-2-yloxy)-benzofuran-2-ylmethyl]-2,7-diaza-spiro[4.5]dec-7-yl}-ethanone] stands 286 nM. For the compound `CNC(=O)C1CCN(Cc2cc3ccc(Oc4nc5ncccc5s4)cc3o2)CC1` [Example 204, 1-[6-(Thiazolo[4,5-b]pyridin-2-yloxy)-benzofuran-2-ylmethyl]-piperidine-4-carboxylic acid methylamide], the 50% inhibitory concentration (IC50) came out at 169 nM. `Fc1cnc2sc(Oc3ccc4c(CN5CCOCC5)c[nH]c4c3)nc2c1` [Example 60, 6-Fluoro-2-(3-morpholin-4-ylmethyl-1H-indol-6-yloxy)-thiazolo[5,4-b]pyridine]: the 50% inhibitory concentration (IC50) was determined as 169 nM. With `O=C1CCCN1C1CCN(Cc2cc3ncc(Oc4nc5ncccc5s4)cc3o2)CC1` [Example 341, 1-{1-[6-(Thiazolo[4,5-b]pyridin-2-yloxy)-furo[3,2-b]pyridin-2-ylmethyl]-piperidin-4-yl}-pyrrolidin-2-one], the IC50 worked out at 470 nM. The value for `O=C(O)C1CCN(CCc2c[nH]c3ccc(Oc4nc5ccccc5s4)cc23)CC1` [Example 73, 1-{2-[5-(Benzothiazol-2-yloxy)-1H-indol-3-yl]-ethyl}-piperidine-4-carboxylic acid] was 3460 nM; that for `c1cnc2nc(Oc3ccc4cc(CN5CCCCC5)sc4c3)sc2c1` [Example 136, 2-(2-Piperidin-1-ylmethyl-benzo[b]thiophen-6-yloxy)-thiazolo[4,5-b]pyridine] was 117 nM.

Turning to `CCN(CC)CCNCc1coc2cc(Oc3nc4ncccc4s3)ccc12` [Example 317, N,N-Diethyl-N′-[6-(thiazolo[4,5-b]pyridin-2-yloxy)-benzofuran-3-ylmethyl]-ethane-1,2-diamine], the IC50 is 35 nM.

For `CC(C)(C)OC(=O)C1CCN(Cc2cc3ccc(Oc4nc5ncccc5s4)cc3o2)CC1` [Example 225, 1-[6-(Thiazolo[4,5-b]pyridin-2-yloxy)-benzofuran-2-ylmethyl]-piperidine-4-carboxylic acid tert-butyl ester], the concentration for half-maximal inhibition (IC50) came out at 765 nM. Under `c1ccc2sc(Oc3ccc4cc(CN5CCCCC5)oc4c3)nc2c1` [Example 406, 2-(2-Piperidin-1-ylmethyl-benzofuran-6-yloxy)-benzothiazole] stands 492 nM; under `O=C1Cc2cc(Cl)ccc2N1Cc1coc2cc(Oc3nc4ncccc4s3)ccc12` [Example 401, 5-Chloro-1-[6-(thiazolo[4,5-b]pyridin-2-yloxy)-benzofuran-3-ylmethyl]-1,3-dihydro-indol-2-one], 1020 nM. On to `CC(=O)NC1CCN(Cc2cc3ncc(Oc4nc5ncccc5s4)cc3o2)CC1` [Example 273, N-{1-[6-(Thiazolo[4,5-b]pyridin-2-yloxy)-furo[3,2-b]pyridin-2-ylmethyl]-piperidin-4-yl}-acetamide formate], for which the 50% inhibitory concentration (IC50) was 160 nM. The value for `O=C(O)c1ccc(C(=O)NCc2coc3cc(Oc4nc5ncccc5s4)ccc23)cc1` [Example 396, N-[6-(Thiazolo[4,5-b]pyridin-2-yloxy)-benzofuran-3-ylmethyl]-terephthalamic acid] was 52 nM; that for `CC(=O)N1C[C@H]2CC[C@@H](C1)N2CCc1coc2cc(Oc3nc4ncccc4s3)ccc12` [Example 130, meso-1-(8-{2-[6-(Thiazolo[4,5-b]pyridin-2-yloxy)-benzofuran-3-yl]-ethyl}-3,8-diaza-bicyclo[3.2.1]oct-3-yl)-ethanone] was 5 nM.
